The NIST ThermoML archive (doi:10.1021/je300902c)
± gives the expanded uncertainty stated by the source.

How the values were obtained:
[1] = Molar enthalpy of transition or fusion; conditions: DSC
[2] = molar enthalpy of vaporization or sublimation; conditions: 298 K; Liquid; DSC

Triple point temperature (Crystal 2, DTA): 340.9 ± 0.5 K
Normal melting temperature (Crystal, DSC/DTA): 79.2 ± 0.4 °C
Molar enthalpy of transition or fusion ([1]; Crystal 2): 0.853 ± 0.148 kcal/mol
Molar enthalpy of transition or fusion ([1]; Crystal): 15.8 ± 0.335 kcal/mol
molar enthalpy [2]: 37 ± 3.59 kcal/mol
SMILES: CCCCCCCCCCCCCCCCCCCCCC(=O)O [docosanoic acid]
